Patent US20240116985A1, “STAPLED PEPTIDES AND METHODS THEREOF” (priority 2020, published 2024)

What was measured:
[1] = molecular target: T1, full-length B-Catenin (Uniprot ID P35222) (Homo sapiens, UniProt P35222); experiment: Alphascreen binding assay (beta-catenin / biotin-TCF4 10-53)
T1 construct: 65 nM full-length B-Catenin (Uniprot ID P35222)
T1 sequence (P35222 1-781): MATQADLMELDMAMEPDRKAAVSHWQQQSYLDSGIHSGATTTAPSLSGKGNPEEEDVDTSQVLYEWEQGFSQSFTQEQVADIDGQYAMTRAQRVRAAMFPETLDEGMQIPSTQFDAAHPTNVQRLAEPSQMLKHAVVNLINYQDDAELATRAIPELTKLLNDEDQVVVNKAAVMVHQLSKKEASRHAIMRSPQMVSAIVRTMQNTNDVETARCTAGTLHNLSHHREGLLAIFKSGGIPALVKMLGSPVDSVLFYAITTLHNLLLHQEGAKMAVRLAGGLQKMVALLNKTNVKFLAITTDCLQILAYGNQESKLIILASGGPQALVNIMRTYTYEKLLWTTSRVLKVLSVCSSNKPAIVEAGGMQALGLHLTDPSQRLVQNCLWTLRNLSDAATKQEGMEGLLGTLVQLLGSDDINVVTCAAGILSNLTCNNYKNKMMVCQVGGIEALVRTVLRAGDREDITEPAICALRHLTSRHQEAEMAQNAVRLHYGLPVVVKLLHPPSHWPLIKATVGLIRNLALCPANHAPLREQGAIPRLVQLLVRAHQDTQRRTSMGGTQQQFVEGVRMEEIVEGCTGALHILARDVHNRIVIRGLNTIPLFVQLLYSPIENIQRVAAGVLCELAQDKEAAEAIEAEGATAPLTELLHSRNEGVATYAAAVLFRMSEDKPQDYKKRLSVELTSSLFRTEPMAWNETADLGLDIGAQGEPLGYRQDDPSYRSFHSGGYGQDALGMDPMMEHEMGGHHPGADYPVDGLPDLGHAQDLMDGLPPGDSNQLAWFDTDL
Summary of the method: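 Final concentrations: 65 nM full-length human β-catenin plus 10 nM biotin-TCF4(10-53) peptide, test peptide 3-fold from 10 uM to 5 nM, preincubated 15 min at 20 °C in Tris pH 8.0/250 mM NaCl buffer. Nickel-chelate AlphaScreen donor/acceptor beads then added for 60 min in the dark; duplicate reads fitted to 1:1 binding model with Hill slope.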

[2] = CHI Log D procedure; format: physicochemical; conditions: for CHI Log D: pH 7.4; for chromatographic logD: pH 7.4, CHI Log D

| SMILES | EC50 [1] [µM] | CHI Log D [2] | chromatographic logD [2] |
| --- | --- | --- | --- |
| CC[C@H](C)[C@H](NC(=O)[C@H](CC(=O)O)NC(C)=O)C(=O)N[C@]1(C)CCN(C)C(=O)OCC=CCCCCC[C@@](C)(C(=O)N[C@@H](Cc2ccccc2)C(=O)N[C@@H](Cc2c[nH]c3ccccc23)C(N)=O)NC(=O)[C@H](CCC(N)=O)NC(=O)[C@H](Cc2ccccc2)NC(=O)[C@H](C)NC(=O)[C@H](C)NC(=O)[C@H](CC(=O)O)NC(=O)[C@H](CC(=O)O)NC1=O [I-151, Ac-Asp-Ile-RdN-Asp-Asp-Ala-Ala-Phe-Gln-S7-Phe-Trp-NH2] | 5.5 | – | 1.35 |
| CC(=O)N[C@@H](C)C(=O)N[C@@H](CC(=O)O)C(=O)N[C@@H](C)C(=O)N[C@]1(C)CCN(C)C(=O)OCC=CCCCCC[C@@](C)(C(=O)N[C@@H](Cc2ccccc2)C(=O)N[C@@H](Cc2c[nH]c3ccccc23)C(=O)N[C@@H](Cc2c[nH]cn2)C(N)=O)NC(=O)[C@H](CCC(N)=O)NC(=O)[C@H](Cc2ccccc2)NC(=O)[C@H](C)NC(=O)[C@H](C)NC(=O)[C@H](CCC(=O)O)NC(=O)[C@H](CC(=O)O)NC1=O [I-156, Ac-Ala-Asp-Ala-RdN-Asp-Glu-Ala-Ala-Phe-Gln-S7-Phe-Trp-His-NH2] | 4.18 | – | 1.07 |
| CC(=O)NC(C)(C)C(=O)N[C@@H](CC(=O)O)C(=O)N[C@@H](C)C(=O)N[C@]1(C)CCCCCCC=CCOC(=O)N2CC[C@@](C(=O)N[C@@H](Cc3ccccc3)C(=O)N[C@@H](Cc3c[nH]c4ccccc34)C(=O)NC(C)(C)C(N)=O)(C2)NC(=O)[C@H](C(C)C)NC(=O)[C@H](Cc2ccccc2)NC(=O)[C@H](C)NC(=O)[C@H](C)NC(=O)[C@H](CCC(=O)O)NC(=O)[C@H](CC(=O)O)NC1=O [I-160, Ac-Aib-Asp-Ala-R8-Asp-Glu-Ala-Ala-Phe-Val-PyrS-Phe-Trp-Aib-NH2] | 3.24 | 1.49 | – |
| CC(=O)N1CCC[C@]12CC=CCCCC1(CCCC=CCCCCCC[C@@](C)(C(=O)N[C@@H](Cc3ccccc3)C(=O)N[C@@H](CC3CNc4ccccc43)C(=O)N[C@@H](CCC(N)=O)C(N)=O)NC(=O)[C@H](C(C)C)NC(=O)[C@H](Cc3ccccc3)NC(=O)[C@H](C)NC(=O)[C@H](C)NC(=O)[C@H](CCC(=O)O)NC(=O)[C@H](CC(=O)O)NC1=O)NC(=O)[C@H](C)NC(=O)[C@H](CC(=O)O)NC2=O (stereo partly drawn) [I-167, Ac-PL3-Asp-Ala-B5-Asp-Glu-Ala-Ala-Phe-Val-S8-Phe-H2Trp-Gln-NH2] | 6.2 | 1.927 | – |
| CC(=O)N1CCC[C@]12CC=CCCCC1(CCCC=CCCCCCC[C@@](C)(C(=O)N[C@@H](Cc3ccccc3)C(=O)N[C@@H](CC3CNc4ccccc43)C(=O)N[C@@H](CCC(N)=O)C(N)=O)NC(=O)[C@H](C(C)C)NC(=O)[C@H](Cc3ccccc3)NC(=O)[C@H](C)NC(=O)[C@H](C)NC(=O)[C@H](CCC(=O)O)NC(=O)[C@H](CC(=O)O)NC1=O)NC(=O)[C@H](C)NC(=O)[C@H](CC(=O)O)NC2=O (stereo partly drawn) [I-168, Ac-PL3-Asp-Ala-B5-Asp-Glu-Ala-Ala-Phe-Val-S8-Phe-H2Trp-Gln-NH2] | 5.64 | 1.942 | – |
| CC(=O)N1CCC[C@]12CC=CCCCC1(CCCC=CCCCCCC[C@@](C)(C(=O)N[C@@H](Cc3ccccc3)C(=O)N[C@@H](Cc3c[nH]c4ccc(C(F)(F)F)cc34)C(=O)N[C@@H](CCC(N)=O)C(N)=O)NC(=O)[C@H](C(C)C)NC(=O)[C@H](Cc3ccccc3)NC(=O)[C@H](C)NC(=O)[C@H](C)NC(=O)[C@H](CCC(=O)O)NC(=O)[C@H](CC(=O)O)NC1=O)NC(=O)[C@H](C)NC(=O)[C@H](CC(=O)O)NC2=O (stereo partly drawn) [I-169, Ac-PL3-Asp-Ala-B5-Asp-Glu-Ala-Ala-Phe-Val-S8-Phe-5CF3W-Gln-NH2] | 9.21 | – | 2.18 |
| CC(=O)N1CCC[C@]12CC=CCCCC1(CCCC=CCCCCCC[C@@](C)(C(=O)N[C@@H](Cc3ccccc3)C(=O)N[C@@H](Cc3ccc4ccccc4c3)C(=O)N[C@@H](C)C(N)=O)NC(=O)[C@H](C)NC(=O)[C@H](Cc3ccc(F)c(F)c3)NC(=O)[C@H](C)NC(=O)[C@H](C)NC(=O)[C@H](CCC(=O)O)NC(=O)[C@H](CC(=O)O)NC1=O)NC(=O)[C@H](C)NC(=O)[C@H](CC(=O)O)NC2=O (stereo partly drawn) [I-185, Ac-PL3-Asp-Ala-B5-Asp-Glu-Ala-Ala-34FF-Ala-S8-Phe-2NapA-Ala-NH2] | 2.66 | – | 2.3 |
| CC(=O)N1CCC[C@]12CC=CCCCC1(CCCC=CCCCCCC[C@@](C)(C(=O)N[C@@H](Cc3ccccc3)C(=O)N[C@@H](Cc3c[nH]c4ccccc34)C(=O)N[C@@H](CCC(N)=O)C(N)=O)NC(=O)[C@H](C(C)C)NC(=O)[C@H](Cc3ccccc3)NC(=O)[C@H](C)NC(=O)[C@H](C)NC(=O)[C@H](CCC(=O)O)NC(=O)[C@H](CCc3ccccc3)NC1=O)NC(=O)[C@H](C)NC(=O)[C@H](CC(=O)O)NC2=O (stereo partly drawn) [I-197, Ac-PL3-Asp-Ala-B5-hPhe-Glu-Ala-Ala-Phe-Val-S8-Phe-Trp-Gln-NH2] | 6.15 | 3.809 | – |

Stronger by EC50 [1], values ahead:

| EC50 [1] [µM] | CHI Log D [2] | chromatographic logD [2] | SMILES |
| --- | --- | --- | --- |
| 1.94 | 1.297 | – | CC[C@H](C)[C@H](NC(=O)[C@H](CC(=O)O)NC(C)=O)C(=O)N[C@]1(C)CCN(C)C(=O)OCC=CCCCCC[C@@](C)(C(=O)N[C@@H](Cc2ccccc2)C(=O)N[C@@H](Cc2c[nH]c3ccccc23)C(=O)N[C@@H](Cc2c[nH]cn2)C(N)=O)NC(=O)[C@H](CCC(N)=O)NC(=O)[C@H](Cc2ccccc2)NC(=O)[C@H](C)NC(=O)[C@H](C)NC(=O)[C@H](CC(=O)O)NC(=O)[C@H](CC(=O)O)NC1=O [I-150, Ac-Asp-Ile-RdN-Asp-Asp-Ala-Ala-Phe-Gln-S7-Phe-Trp-His-NH2] |
| 0.734 | 1.415 | – | CC[C@H](C)[C@H](NC(=O)[C@H](CC(=O)O)NC(=O)[C@H](C)NC(C)=O)C(=O)N[C@]1(C)CCN(C)C(=O)OCC=CCCCCC[C@@](C)(C(=O)N[C@@H](Cc2ccccc2)C(=O)N[C@@H](Cc2c[nH]c3ccccc23)C(=O)N[C@@H](C)C(N)=O)NC(=O)[C@H](C)NC(=O)[C@H](Cc2ccccc2)NC(=O)[C@H](C)NC(=O)[C@H](C)NC(=O)[C@H](CCC(=O)O)NC(=O)[C@H](CC(=O)O)NC1=O [I-155, Ac-Ala-Asp-Ile-RdN-Asp-Glu-Ala-Ala-Phe-Ala-S7-Phe-Trp-Ala-NH2] |
| 2.17 | 1.23 | – | CC(=O)NC(C)(C)C(=O)N[C@@H](CC(=O)O)C(=O)N[C@@H](C)C(=O)N[C@]1(C)CCCCCCC=CCOC(=O)N2CC[C@@](C(=O)N[C@@H](Cc3ccccc3)C(=O)N[C@@H](Cc3c[nH]c4ccccc34)C(=O)N[C@@H](CCC(N)=O)C(N)=O)(C2)NC(=O)[C@H](C(C)C)NC(=O)[C@H](Cc2ccccc2)NC(=O)[C@H](C)NC(=O)[C@H](C)NC(=O)[C@H](CCC(=O)O)NC(=O)[C@H](CC(=O)O)NC1=O [I-158, Ac-Aib-Asp-Ala-R8-Asp-Glu-Ala-Ala-Phe-Val-PyrS-Phe-Trp-Gln-NH2] |
| 1.23 | – | 2 | COc1ccc2[nH]cc(C[C@H](NC(=O)[C@H](Cc3ccccc3)NC(=O)[C@]3(C)CCCCCCC=CCCCC4(CCCC=CC[C@]5(CCCN5C(C)=O)C(=O)N[C@@H](CC(=O)O)C(=O)N[C@@H](C)C(=O)N4)C(=O)N[C@@H](CC(=O)O)C(=O)N[C@@H](CCC(=O)O)C(=O)N[C@@H](C)C(=O)N[C@@H](C)C(=O)N[C@@H](Cc4ccccc4)C(=O)N[C@@H](C(C)C)C(=O)N3)C(=O)N[C@@H](CCC(N)=O)C(N)=O)c2c1 (stereo partly drawn) [I-165, Ac-PL3-Asp-Ala-B5-Asp-Glu-Ala-Ala-Phe-Val-S8-Phe-5MeOW-Gln-NH2] |
| 2.07 | 2.204 | – | CC(=O)N1CCC[C@]12CC=CCCCC1(CCCC=CCCCCCC[C@@](C)(C(=O)N[C@@H](Cc3ccccc3)C(=O)N[C@@H](Cc3c[nH]c4ccc(C5CC5)cc34)C(=O)N[C@@H](CCC(N)=O)C(N)=O)NC(=O)[C@H](C(C)C)NC(=O)[C@H](Cc3ccccc3)NC(=O)[C@H](C)NC(=O)[C@H](C)NC(=O)[C@H](CCC(=O)O)NC(=O)[C@H](CC(=O)O)NC1=O)NC(=O)[C@H](C)NC(=O)[C@H](CC(=O)O)NC2=O (stereo partly drawn) [I-171, Ac-PL3-Asp-Ala-B5-Asp-Glu-Ala-Ala-Phe-Val-S8-Phe-5CpW-Gln-NH2] |
| 0.518 | 2.041 | – | CC(=O)N1CCC[C@]12CC=CCCCC1(CCCC=CCCCCCC[C@@](C)(C(=O)N[C@@H](Cc3ccccc3)C(=O)N[C@@H](Cc3c[nH]c4ccccc34)C(=O)N[C@@H](C)C(N)=O)NC(=O)[C@H](C)NC(=O)[C@H](Cc3ccccc3)NC(=O)[C@H](C)NC(=O)[C@H](C)NC(=O)[C@H](CCC(=O)O)NC(=O)[C@H](CC(=O)O)NC1=O)NC(=O)[C@H](C)NC(=O)[C@H](CC(=O)O)NC2=O (stereo partly drawn) [I-186, Ac-PL3-Asp-Ala-B5-Asp-Glu-Ala-Ala-Phe-Ala-S8-Phe-Trp-Ala-NH2] |
